From paper PMC8070004, “Isorhamnetin Ameliorates Dry Eye Disease via CFTR Activation in Mice” (International Journal of Molecular Sciences, 2021)

Legend:
[1] = test system: corneal epithelial (CorE) cells; assay: MTS cell viability assay in CorE cells; assay type: cell-based, human; settings: 48 h; isorhamnetin 30 μM, Triton X-100 0.01%
Method: (§1) Immortalized human CorE [47] and immortalized human ConjE (Innoprot, Bizkaia, Spain) cells were plated on 96-well microplates. After 24 h incubation, cells were treated with 30 μM isorhamnetin or 0.01% Triton X-100 and then they were incubated for two days. An equal amount of DMSO was added to the control. The culture medium and the compounds were changed every 12 h. To assess cell proliferation, after 48 h of incubation with the compound, the cells were reincubated with MTS for 1 h. The soluble formazan produced by cellular reduction of MTS was quantified by measuring the absorbance at 490 nm with Infinite M200 (Tecan, Grödig, Austria) microplate reader. MTS assay was done using CellTiter 96 AQueous One Solution Cell Proliferation Assay kit (Promega, Madison, WI, USA).

[2] = test system: conjunctival epithelial (ConjE) cells; assay: MTS cell viability assay in ConjE cells; assay type: cell-based, human; settings: 48 h; isorhamnetin 30 μM, Triton X-100 0.01%
Method: as §1

[3] = molecular target: T1, CFTR (Mus musculus, UniProt P26361); assay: Open-circuit ocular surface potential difference (PD) in CD-1 mice; assay type: in vivo; settings: 20 μM CFTRinh-172
T1 construct: from tissue; host or cells: ocular surface of anesthetized CD-1 mice (in vivo)

[4] = test system: CD-1 mice; assay: Tear volume by phenol red thread tear test in normal CD-1 mice; assay type: in vivo, mouse; settings: isorhamnetin 30 µM with CFTRinh-172 20 µM
Method: Tear volume was measured using phenol red threads (Zone-Quick, Oasis Medical, Glendora, CA, USA) by placing them in the lateral canthi of normal CD-1 or dry eye model-treated BL6 mice for 10 s using forceps. Tear volume was measured using a Vernier caliper as the length of thread wetting under a microscope. For normal CD-1 mice, serial measurements were done to evaluate compound pharmacodynamics compared to the vehicle after topical application of a single, 2.5-μL drop of compound formulations containing 20 μM forskolin, 30 μM isorhamnetin, or 20 μM CFTRinh-172 in PBS with 0.1% DMSO.

[5] = molecular target: WT-CFTR (Homo sapiens, UniProt P13569); assay: Whole-cell patch clamp in CHO-K1 cells expressing WT-CFTR; assay type: cell-based; set-up: expressed in transfected cells; host or cells: CHO-K1; settings: 10 μM CFTRinh-172
Method: Whole-cell, patch clamp recordings were performed on CFTR-expressing CHO cells. The bath solution contained (in mM) 140 NMDG-Cl, 1 CaCl2, 1 MgCl2, 10 glucose, and 10 HEPES (pH 7.4). The pipette solution contained (in mM) 130 CsCl, 0.5 EGTA, 1 MgCl2, 1 Tris-ATP, and 10 HEPES (pH 7.2). […] Seal resistances were between 3 and 10 GΩ. After establishing the whole-cell configuration, CFTR was activated by forskolin and/or isorhamnetin. […] Recordings were made at room temperature using an Axopatch-200B (Axon Instruments, San Jose, CA, USA). Currents were digitized with a Digidata 1440A converter (Axon Instruments), filtered at 5 kHz, and sampled at 1 kHz.

T1 sequence (P26361 whole entry): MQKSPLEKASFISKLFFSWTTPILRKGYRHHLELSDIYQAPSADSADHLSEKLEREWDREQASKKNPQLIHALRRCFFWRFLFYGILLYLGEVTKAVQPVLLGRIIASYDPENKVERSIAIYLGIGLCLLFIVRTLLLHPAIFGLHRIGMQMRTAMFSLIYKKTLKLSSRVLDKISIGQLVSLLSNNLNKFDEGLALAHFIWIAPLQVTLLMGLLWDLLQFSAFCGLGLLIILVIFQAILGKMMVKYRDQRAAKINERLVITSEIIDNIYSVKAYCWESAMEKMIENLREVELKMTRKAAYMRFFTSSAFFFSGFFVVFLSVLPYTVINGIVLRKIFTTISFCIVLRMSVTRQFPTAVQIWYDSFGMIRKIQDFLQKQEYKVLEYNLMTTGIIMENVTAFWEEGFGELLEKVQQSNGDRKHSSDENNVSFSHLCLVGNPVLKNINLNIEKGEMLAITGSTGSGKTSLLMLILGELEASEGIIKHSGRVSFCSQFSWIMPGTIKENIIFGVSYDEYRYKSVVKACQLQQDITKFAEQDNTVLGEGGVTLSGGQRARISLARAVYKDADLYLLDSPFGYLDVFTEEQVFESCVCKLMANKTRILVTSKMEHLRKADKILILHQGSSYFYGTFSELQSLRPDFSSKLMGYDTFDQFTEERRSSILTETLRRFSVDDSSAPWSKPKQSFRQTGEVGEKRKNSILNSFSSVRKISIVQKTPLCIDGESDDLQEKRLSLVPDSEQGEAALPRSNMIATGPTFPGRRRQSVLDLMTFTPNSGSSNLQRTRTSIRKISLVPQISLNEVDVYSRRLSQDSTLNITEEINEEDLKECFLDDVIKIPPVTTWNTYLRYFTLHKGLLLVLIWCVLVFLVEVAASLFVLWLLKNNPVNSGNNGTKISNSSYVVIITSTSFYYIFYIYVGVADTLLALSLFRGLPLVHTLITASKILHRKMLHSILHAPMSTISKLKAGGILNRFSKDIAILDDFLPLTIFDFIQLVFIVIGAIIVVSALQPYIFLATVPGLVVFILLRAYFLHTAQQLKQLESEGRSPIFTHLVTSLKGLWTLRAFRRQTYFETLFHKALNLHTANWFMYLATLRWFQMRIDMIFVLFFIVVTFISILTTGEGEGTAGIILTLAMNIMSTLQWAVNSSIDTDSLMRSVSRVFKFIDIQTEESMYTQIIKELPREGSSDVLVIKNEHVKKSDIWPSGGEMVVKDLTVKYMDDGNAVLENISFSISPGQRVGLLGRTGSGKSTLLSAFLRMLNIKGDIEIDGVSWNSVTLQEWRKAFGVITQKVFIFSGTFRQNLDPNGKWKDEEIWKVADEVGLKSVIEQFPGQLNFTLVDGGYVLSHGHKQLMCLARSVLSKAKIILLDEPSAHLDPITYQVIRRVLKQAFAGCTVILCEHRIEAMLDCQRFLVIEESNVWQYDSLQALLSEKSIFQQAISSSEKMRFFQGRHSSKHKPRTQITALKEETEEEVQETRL
Chain of WT-CFTR (P13569 whole entry): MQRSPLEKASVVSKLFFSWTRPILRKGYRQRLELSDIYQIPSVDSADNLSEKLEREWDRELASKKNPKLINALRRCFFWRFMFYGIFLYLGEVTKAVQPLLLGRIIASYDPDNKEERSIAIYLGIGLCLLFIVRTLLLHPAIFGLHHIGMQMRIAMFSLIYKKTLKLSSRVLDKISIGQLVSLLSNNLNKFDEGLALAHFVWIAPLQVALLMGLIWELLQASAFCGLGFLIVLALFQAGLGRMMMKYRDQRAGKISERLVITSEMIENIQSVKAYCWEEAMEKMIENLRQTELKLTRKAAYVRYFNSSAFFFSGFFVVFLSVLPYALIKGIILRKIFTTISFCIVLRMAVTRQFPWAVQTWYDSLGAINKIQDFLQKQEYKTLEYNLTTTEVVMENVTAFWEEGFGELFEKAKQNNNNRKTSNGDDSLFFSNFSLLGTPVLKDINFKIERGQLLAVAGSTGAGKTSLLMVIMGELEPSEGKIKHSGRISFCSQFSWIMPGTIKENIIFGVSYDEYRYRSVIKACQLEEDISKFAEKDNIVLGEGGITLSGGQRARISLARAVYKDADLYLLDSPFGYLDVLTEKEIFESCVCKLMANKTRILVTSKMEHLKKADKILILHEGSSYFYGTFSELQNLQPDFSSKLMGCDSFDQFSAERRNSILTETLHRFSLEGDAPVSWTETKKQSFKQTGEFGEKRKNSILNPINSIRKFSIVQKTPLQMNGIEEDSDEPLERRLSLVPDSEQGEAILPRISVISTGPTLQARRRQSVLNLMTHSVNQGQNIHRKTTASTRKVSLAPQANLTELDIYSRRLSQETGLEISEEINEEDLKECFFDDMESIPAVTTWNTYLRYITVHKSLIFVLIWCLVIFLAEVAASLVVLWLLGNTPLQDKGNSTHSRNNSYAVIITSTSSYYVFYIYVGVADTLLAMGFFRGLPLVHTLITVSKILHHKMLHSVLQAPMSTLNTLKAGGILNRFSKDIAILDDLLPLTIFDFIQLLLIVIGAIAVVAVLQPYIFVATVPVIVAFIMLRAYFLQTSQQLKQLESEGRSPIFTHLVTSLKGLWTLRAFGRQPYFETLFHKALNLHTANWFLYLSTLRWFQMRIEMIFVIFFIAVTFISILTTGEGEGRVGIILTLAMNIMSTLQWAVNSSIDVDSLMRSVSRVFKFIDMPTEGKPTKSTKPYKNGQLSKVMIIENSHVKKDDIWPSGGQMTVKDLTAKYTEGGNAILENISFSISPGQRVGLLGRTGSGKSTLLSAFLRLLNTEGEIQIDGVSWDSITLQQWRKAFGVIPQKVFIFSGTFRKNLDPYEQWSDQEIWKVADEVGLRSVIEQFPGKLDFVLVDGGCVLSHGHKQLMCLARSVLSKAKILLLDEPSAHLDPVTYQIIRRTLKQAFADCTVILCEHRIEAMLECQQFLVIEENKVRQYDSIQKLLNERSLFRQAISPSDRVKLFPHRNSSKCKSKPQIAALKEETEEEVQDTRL

| isorhamnetin-induced hyperpolarization of ocular PD [3] | block of isorhamnetin-induced CFTR Cl- currents (whole-cell) [5] | Compound | cell viability (MTS), CorE cells [1] | cell viability (MTS), ConjE cells [2] | isorhamnetin-increased tear volume [4] |
| --- | --- | --- | --- | --- | --- |
| – | – | Triton X-100 [reference compound] | markedly decreased cell viability | markedly decreased cell viability | – |
| inhibited | almost completely blocked | O=C(O)c1ccc(/C=C2\SC(=S)N(c3cccc(C(F)(F)F)c3)C2=O)cc1 [CFTRinh-172, reference compound] | – | – | completely suppressed |
